Data reported in patent publication US5212163A, “Compounds” (Beecham Group p.l.c., priority 1989, dated 1993).
pIC50: −log10 of the molar value.

Molecular target: rabbit bone collagenase (Oryctolagus cuniculus, UniProt P13943)
Experiment: biochemical
Method: The test is performed essentially as in Cawston and Barrett Anal. Biochem. 99, 340-345 (1979). Compounds for testing are dissolved in methanol and added to purified rabbit bone collagenase or human collagenase purified from culture supernatants from the human lung fibroblast cell line, WI-38, diluted in a suitable aqueous buffer. After a 5 min pre-incubation at 37° C., the assay tubes are cooled to 4° C. and ^14 C-acetylated rat skin Type I collagen is added. The assay tubes are incubated at 37° C. overnight. The ^14 C-collagen forms insoluble fibrils which are the substrate for the enzyme.
To terminate the assay, the assay tubes are spun at 12000 rpm for 25 min. Undigested ^14 C-collagen remains as insoluble fibrils and is pelleted, while digested ^14 C-collagen remains as soluble peptides in the supernatant. A sample of the supernatant is taken for liquid scintillation counting.

rabbit bone collagenase, sequence (P13943 99-468): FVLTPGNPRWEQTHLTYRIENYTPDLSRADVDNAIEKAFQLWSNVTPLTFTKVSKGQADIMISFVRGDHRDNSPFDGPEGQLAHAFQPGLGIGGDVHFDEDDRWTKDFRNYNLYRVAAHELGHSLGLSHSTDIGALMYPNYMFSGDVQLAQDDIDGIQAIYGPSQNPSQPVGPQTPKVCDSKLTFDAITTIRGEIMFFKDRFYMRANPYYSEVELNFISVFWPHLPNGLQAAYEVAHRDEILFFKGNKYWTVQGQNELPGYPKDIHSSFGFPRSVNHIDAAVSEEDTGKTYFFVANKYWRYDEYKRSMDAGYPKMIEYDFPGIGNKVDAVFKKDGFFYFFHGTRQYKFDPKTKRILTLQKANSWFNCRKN

Structure (SMILES): COC(=O)[C@H](C)NC(=O)[C@H](Cc1c[nH]c2ccccc12)NC(=O)[C@H](CC(C)C)NC(C)P(=O)(O)O (stereo partly drawn) [Example E1, N-[N-[N-(1-Phosphonoethyl)-leucyl]-(S)-tryptophyl]-(S)-alanine, methyl ester]
- pIC50: 5.62

Structure (SMILES): COC(=O)[C@H](C)NC(=O)[C@H](Cc1ccc(OC)cc1)NC(=O)[C@H](CC(C)C)NC(C)P(=O)(O)O (stereo partly drawn) [Example E2, N-[N-[N-(1-Phosphonoethyl)-leucyl]-O-methyl-(S)-tyrosyl]-(S)-alanine, methyl ester]
- pIC50: 5.51
